Reference: US20260083704A1, “LXR MODULATORS WITH BICYCLIC CORE MOIETY FOR TREATING DYSLIPIDEMIAS” (OrsoBio, Inc., priority 2022, published 2026)

Tests used:
[1] = test system: humanized liver chimeric PXB mice; assay: Humanized liver chimeric PXB mouse model; type: in vivo; conditions: 1 mg/kg once daily oral, 8 days
Protocol: Data are shown as mean±SD. N=4-5 animals per group. *p≤0.05, **p≤0.01, ***p≤0.001, ****p≤0.0001 Mann-Whitney test.
Since features of cholesterol metabolism differ between rodents and humans, the humanized liver chimeric PXB® mouse model was utilized to further explore the effects of Compound 21/3 on lipid metabolism in a more relevant nonclinical model (Tateno, Yoshizane et al. 2004). Briefly, PXB mice were treated with either vehicle or Compound 21/3 (1 mg/kg once daily by oral gavage) for 8 days. The pharmacokinetics (PK) data from this study are presented herein. […] Specifically, Compound 21/3 reduced the expression of the cholesterol synthesis gene, HMGCR, as well as in genes that reduce the hepatic uptake of LDL-C (PCSK9, IDOL) and conversion of cholesterol to bile acids (CYP7A1). As expected, marked reductions in ANGPTL3 and DNL-associated genes (SREBP1C, ACACA, FASN, SCD1) were also observed.

[2] = test system: healthy subjects; assay: Phase 1 study, SAD cohorts: safety and tolerability; type: in vivo, human; conditions: range over dose groups
Protocol: A double-blind, placebo-controlled, single- and multiple-ascending dose FIH Phase 1 study to evaluate the safety, tolerability, PK, and PD of Compound 21/3 in healthy adult subjects was performed. A total of up to 150 subjects were enrolled, including 100 subjects in Parts A and B, and up to 50 subjects in adaptive cohorts in Part C. Within each cohort, 10 subjects were randomized, including 8 subjects randomized to Compound 21/3 and 2 subjects to PTM (placebo-to-match). In single-dose cohorts in Parts A and in any Part C cohort evaluating a higher total daily dose than previously evaluated, safety and tolerability data collected through Day 2 from two sentinel subjects, one randomized to Compound 21/3 and one to PTM, were evaluated prior to dosing of the remaining subjects in each cohort.
An approximately even distribution of healthy male and non-pregnant, non-lactating female subjects 18 to 55 years of age, inclusive, were to be enrolled in the study. There were no significant medical conditions by history, physical examination, or laboratory evaluation. Subjects were not allowed to participate in more than one cohort of the study. Within each MAD cohort, attempts were made to enrich for >3 subjects with elevated TG and/or LDL-C. Following the completion of Screening and admission assessments, eligible subjects were to be enrolled on Day −1. […]

[3] = test system: steatotic human liver organoids (sHLO); assay: Steatotic human liver organoid (sHLO) model; type: cell-based; conditions: 3 days
Protocol: Data in FIG. 2A are obtained from (Ouchi, Togo et al. 2019). Data are shown as mean±SD. n=4 wells per treatment.
Activity of Compound 21/3 was also evaluated in an induced pluripotent stem cell (iPSC)-derived human liver organoid (HLO) model established from human donors with different genetic backgrounds, including those with known genetic risk variants for NASH (Ouchi, Togo et al. 2019). The HLOs were exposed to high concentrations of lipid to induce a reproducible steatotic NASH phenotype (sHLO) with increased expression of DNL genes, including NR1H3, the gene that encodes LXRα (FIG. 2A) (Ouchi, Togo et al. 2019, Minniti, Pedrelli et al. 2020). […] Mutations in GCKR have been associated with increased circulating lipids, hepatic DNL, and diseases including diabetes and NASH (Fernandes Silva, Vangipurapu et al. 2019).

[4] = test system: CDHFD/sodium nitrate-treated Wistar Han rats; assay: CDHFD/sodium nitrate rat model of NASH with advanced fibrosis; type: in vivo; conditions: 5 mg/kg once daily oral
Description: Data are shown as mean±SD. N=7-8 animals per group. *p≤0.05, **p≤0.01, ***p≤0.001, ****p≤0.0001 Mann-Whitney test.
The CDHFD model of NASH is characterized by reduced phosphatidylcholine synthesis in the liver and impaired TG secretion in VLDL particles, which results in hepatic lipid accumulation, inflammation, oxidative stress, and severe fibrosis. Liver injury in CDHFD-fed rats can be exacerbated by further inducing hypoxia using sodium nitrate (Takayama, Egashira et al. 2009). Wistar Han rats were treated with CDHFD/sodium nitrate for a total of 12 weeks and dosed with Compound pre-6/3 (5 mg/kg once daily by oral gavage) from Weeks 6 to 12. […] Moreover, compared with vehicle treatment, Compound pre-6/3 decreased hepatic hydroxyproline and collagen content by 64% (p≤0.001) and 50% (p≤0.001), respectively (FIG. 8B-C).

[5] = test system: HFD-fed (DIO) mice; assay: Intestinal lipid absorption (3H-triolein tracer) in HFD-fed mice; type: in vivo; conditions: 5 mg/kg oral gavage
Description: Data are shown as mean±SD. N=5-8 animals per group. *p≤0.05, **p≤0.01, ***p≤0.001, ****p≤0.0001 vs. vehicle, unless otherwise indicated; ^#p≤0.05 pioglitazone vs. vehicle Kruskal-Wallis (non-parametric One-Way ANOVA) test with Dunn's multiple comparisons test (FIG. 4A, FIG. 4B, FIG. 4D), repeated measures two-way ANOVA with Dunnett's multiple comparisons test (FIG. 4C), two-way ANOVA with Sidak's multiple comparisons test (FIG. 4E), Mann-Whitney test (FIG. 4F-G).
In addition to the effects of Compound 21/3 on hepatic DNL, the observed reductions in plasma TG in these models may be mediated by reduced intestinal TG absorption, as well as increased clearance of TG-containing lipoproteins from the circulation. […] Further, LXR inhibition with Compound pre-6/3 reduced intestinal lipid absorption as measured by reduced uptake of ^3H-labelled triolein tracer in HFD-fed mice (FIG. 4E). Additionally, Compound 21/3 reduced hepatic expression and plasma levels of ANGPTL3, an inhibitor of LPL, the predominant enzyme involved in the clearance of TG-rich lipoproteins from the circulation (FIG. 4F). Loss-of-function variants in ANGPTL3 are associated with reduced serum lipids and a lower risk of CAD (Dewey, Gusarova et al. 2017). […]

Compound: N#Cc1cccc(C#N)c1-c1c(-c2cccc(-c3ccc(C(=O)NCC(=O)O)cc3Cl)c2)n(S(=O)(=O)c2ccc(C(F)F)cc2)c2ccc(F)cc12 [Compound 21/3]
- hepatic TG and TC content [1]: trended to reduce
- hepatic expression of genes involved in the metabolism of cholesterol and TG ([1]; relative to vehicle): significantly reduced
- proportion of subjects with adverse events (AEs) [2]: 13-50%
- intracellular lipid content ([3]; patient-derived sHLOs): dose-dependently reduced
- expression of DNL-associated genes ([3]; sHLOs from GCKR wild-type (CC) or mutant (TT) carriers): suppressed

Compound: N#Cc1cccc(C#N)c1-c1c(-c2cccc(-c3ccc(C(=O)O)cc3Cl)c2)n(S(=O)(=O)c2ccc(C(F)F)cc2)c2ccc(F)cc12 [pre-6/3]
- fibrosis (picrosirus red staining) ([4]; Weeks 6 to 12): significantly decreased
- hepatic expression of DNL genes (Srebp1c, Scd1, Fasn) and fibrogenesis genes (Timp1, Col1a1, Acta2) ([4]; Weeks 6 to 12): decreased
- liver TG content ([4]; Weeks 6 to 12): decreased
- decrease of hepatic collagen content compared with vehicle ([4]; Weeks 6 to 12, p≤0.001): 50%
- decrease of hepatic hydroxyproline content compared with vehicle ([4]; Weeks 6 to 12, p≤0.001): 64%
- intestinal lipid absorption (uptake of 3H-labelled triolein tracer) [5]: reduced
